# Measured values reported in US7018457B2, “Azo metal-complexed dyes, ink jet ink compositions and ink jet printing methods” (Polaroid Corporation, priority 2002, dated 2006).
# Legend:
# Format in all cases: physicochemical
# [1] = Light stability of dye coatings on receiver papers, Xenon arc at 10,000 ft. candles; details: for % Density Loss (Y) after 5 Day Xe Arc, Epson / % Density Loss (Y) after 5 Day Xe Arc, Kodak / % Density Loss (Y) after 5 Day Xe Arc, Watercolor: 5 days
# Experimental: (§1) Experiments were carried out with Kodak® Premium Glossy Paper (available from Eastman Kodak Company, Rochester, N.Y.), Epson Premium Glossy Photo Paper (available from Epson Corporation) and Somerset Radiant White watercolor paper (a 100% cotton fiber paper with little or no sizing).
# (§2) The dye samples were prepared by initially making a concentrated ink jet fluid (Fluid A) with 35.2% 1,5-pentanediol, 24.8% 2-pyrollidinone, 20% trimethylolpropane and 20% water (by weight). Two parts by weight of Fluid A were diluted with eight parts of water to form Fluid B consisting of approximately 7% 1,5-pentanediol, 5% 2-pyrollidinone, 4% trimethylolpropane and 84% water.
# (§3) The test fluids were prepared by dissolving approximately 20 mg of dye with heating and vortex stirring into 1 gram of Fluid B. Once a clear fluid was obtained, the fluid was coated on the ink jet receiver material with a #4 Meyer rod. The coating was dried and the reflection density was measured. When the density was not in the range of from 0.7 to 1.3 the test fluid was diluted with additional Fluid B and the coatings repeated until the reflection density was in the range specified above.
# (§4) Samples of the dyes were applied to the papers in a thin film as described above, air dried and the sample exposed in a Xenon arc at 10,000 ft. candles and also to cool white fluorescent bulbs with an irradiance of 2,500 ft. candles.
# This example illustrates the light stability of the dyes of formulas V–XV in xenon arc testing. The tests were carried out as described in Example II.
# The ozone tests were conducted in an ozone chamber constructed from a large Pyrex jar having a volume of approximately 1.2 ft.^3 and a low temperature mercury-argon lamp (Oriel 6035). Ozone was produced in situ by the direct photolysis of oxygen in the ambient air within the chamber. A fan in the chamber ensured that all the samples were uniformly exposed to the ozone. The lamp power supply was energized under the control of a timer such that the lamp was on for 15 minutes every two hours thereby producing an average ozone concentration of about 10 PPM (24 mg/m^3). The test was carried out for 16 hours, or 8 lamp cycles. The ozone tests were carried out on Epson paper. The light stability experiments were carried out for 5 days at […] on Kodak Glossy Paper.
# [2] = Light stability of dye coatings on receiver papers, cool white fluorescent bulbs at 2,500 ft. candles; details: cool white fluorescent 2,500 ft. candles
# Experimental: as §1, §2, §3, §4
# [3] = Ozone stability of dye coatings in an ozone chamber; details: Epson paper; about 10 PPM ozone; 16 hours, 8 lamp cycles
"% Density Loss (Y) after 5 Day Xe Arc, Epson ([1]; Epson Premium Glossy Photo Paper, Xenon arc 10,000 ft. candles) [%]","% Loss in Density, Light ([1]; Kodak Glossy Paper, 5 days at 10,00 ft. candles) [%]","% Density Loss (Y) after 5 Day Xe Arc, Kodak ([1]; Kodak Premium Glossy Paper, Xenon arc 10,000 ft. candles) [%]","% Density Loss (Y) after 5 Day Xe Arc, Watercolor ([1]; Somerset Radiant White watercolor paper, Xenon arc 10,000 ft. candles) [%]","% Density Loss after 3 weeks under fluorescent light, Epson ([2]; Epson paper) [%]","% Density Loss after 3 weeks under fluorescent light, Kodak ([2]; Kodak paper) [%]","% Density Loss after 3 weeks under fluorescent light, Watercolor ([2]; watercolor paper) [%]","% Loss in Density, Ozone [3] [%]","% Density Loss (Y) after 5 Day Xe Arc, Epson ([1]; Table IV, Epson paper, Xenon arc as in Example II) [%]","% Density Loss (Y) after 5 Day Xe Arc, Kodak ([1]; Table IV, Kodak paper, Xenon arc as in Example II) [%]","% Density Loss (Y) after 5 Day Xe Arc, Watercolor ([1]; Table IV, watercolor paper, Xenon arc as in Example II) [%]",SMILES
−7,−90,−85,−23,1,−51,−7,−29,–,–,–,"Cc1nn(-c2ccc(S(=O)(=O)[O-])cc2)c(O)c1N=Nc1ccc(S(=O)(=O)[O-])cc1C(=O)[O-].[Na+].[Na+].[Na+] [Control, 2-[5-hydroxy-3-methyl-1-(4-sulfophenyl)-1H-pyrazol-4-ylazo]-5-sulfobenzoic acid sodium salt]"
–,–,–,–,–,–,–,–,17,−52,−19,Cc1nn(-c2ccc(S(=O)(=O)[O-])cc2)c2c1N=Nc1ccc(S(=O)(=O)[O-])cc1C(=O)[O][Co][O]2.O.[Na+].[Na+] [VI]
